Common to all, as to format: cell-based, human
Assay [1] has as its system senescent fibroblasts (after 38 cell passages). Nature of the assay: DNA comet assay. To be noted: 4 weeks, vs control, p<0.01, FIG. 12. As for the experimental part:
The degrees of restoration of DNA damage in senescent cells by the Rho-kinase inhibitors were identified by a DNA comet assay. This method is performed by detecting DNA fractions cleaved by ultraviolet (UV) irradiation. This method is based on gel electrophoresis. During gel electrophoresis, damaged DNA migrates farther than normal DNA forming a tail like a comet-tail. Then, a slide was stained with SYBR Green, and the length of a tail of a DNA fraction was measured using a fluorescence microscope to identify the degree of DNA damage.
FIG. 12 is a graph displaying degrees of DNA damage in fibroblasts (after 38 cell passages) cultured in the presence of Rho-kinase inhibitors Y-27632 (5 μM), Fasudil (5 μM), and SR3677 (0.5 μM) measured by a DNA comet assay indicating the degree of DNA damage. In FIG. 12, senescent cells (after 38 cell passages) were cultured in culture media supplemented with 5 μM of Y-27632, 5 μM of FASUDIL, and 0.5 μM of SR3677 for 4 weeks in a 5% CO2 incubator at 37° C. The culture media were changed at every 4 days with new culture media supplemented with 5 μM of Y-27632, 5 μM of FASUDIL, and 0.5 μM of SR3677. Also, negative control groups were prepared in the same manner as described above, except that one negative control group was prepared with no treatment and another was treated with 0.05 (v/v) % of DMSO. Cells having undergone 17 passages and having a cell doubling time of 4 to 5 days were used as young cells. […] Thus, it was confirmed that the degree of DNA damage increases in senescent cells. In the Comet assay, the Tail Moment is defined as multiplication of a length of the tail by a total DNA fraction contained in the tail. That is, the Tail Moment is a length of the tail migrated during gel electrophoresis. As the length of the tail decreases, the degree of DNA damage decreases. […] In FIG. 12, ** indicates statistically significant (p<0.01). In FIG. 12, the “Fibroblast p17” and “Fibroblast p38” refer to fibroblasts that were subcultured for 17 passages and fibroblasts subcultured for 38 passages, respectively.

Assay [2] relates to senescent progeric fibroblasts (cell passage 17). Nature of the assay: microscopic observation of cell number and shape. To be noted: 4 weeks, FIG. 17; for numbers of cells: vs DMSO. How it is done: (§1) Progeric fibroblasts (Hutchinson-Gilford Progeria Syndrome Skin Fibroblasts, Coriell Cell Repositories, AG03198 B) were cultured in Dulbecco's Modified Eagle's Media (DMEM) supplemented with 10% fetal bovine serpm (FBS) and 100 unit/ml of penicillin, and 100 μg/ml of streptomycin (two antibiotics are purchased from Gibro-BRL and Grand Island, N.Y.) in a 5% CO2 incubator at 37° C. Subculturing was initiated when the cells were approximately 85% confluent in plates. Early subcultures were performed at a split ratio of 1:4, and later subcultures were performed at a split ratio of 1:2. When cell doubling time was 14 days, the cells were regarded as senescent progeric fibroblasts (cell passages 16 to 17).
(§2) The senescent progeric fibroblasts (cell passage 17) were seeded on each well of a 6-well plate in a concentration of 2,000 cells/well and cultured in the presence of 5 μM of Y-27632, 5 μM of FASUDIL, and 0.5 μM of SR3677 for 4 weeks in a 5% CO2 incubator at 37° C. The culture media were changed at every 4 days with new culture media supplemented with 5 μM of Y-27632, 5 μM of FASUDIL, and 0.5 μM of SR3677. A negative control group was prepared in the same manner, except that 0.05 (v/v) % of DMSO was used.
FIG. 17 illustrates microscopic images of cells cultured in the presence of 5 μM of Y-27632, 5 μM of FASUDIL, and 0.5 μM of SR3677. In “a” of FIG. 17, a portion was selected, marked by a rectangle with a dashed line, and enlarged in a1 for closer examination of the cultured cells. In a1 of FIG. 17, a portion of a1 was selected, marked by a rectangle with a dashed line, and enlarged in a2 for much closer examination of the cultured cells (Scale bar 20 um).

Assay [3] shares this test system. Nature of the assay: mitochondrial ROS (MitoSOX) by flow cytometry. The conditions noted are these: vs control, p<0.05, FIG. 19. How it is done:
as §1, §2
In addition, damage of mitochondria was identified by measuring reactive oxygen species (ROS) and mitochondrial membrane potentials which are well known in the art. ROS were measured using a 0.2 μM MitoSOX (Invitrogen, M3608) according to manufacturer's manuals. Light having a wavelength of 520 nm was irradiated to the cells using a FACSCaliber (Beckton Dickinson), and light emission was measured at 580 nm. The results were analyzed using Cell Quest 3.2 software (Beckton Dickinson). FIG. 19 is a graph displaying reactive oxygen species of progeric fibroblasts (cell passage 17) cultured in the presence of Rho-kinase inhibitors Y-27632 (5 μM), Fasudil (5 μM), and SR3677 (0.5 μM). […] In FIG. 19, * indicates statistically significant (p<0.05).
Background: A flow cytometer gives signals particle by particle.

The test system is the same in assay [4]. Nature of the assay: DNA comet assay. The conditions noted are these: 4 weeks, vs DMSO, p<0.05, FIG. 21. As for the experimental part:
The degrees of restoration of DNA damage in senescent progeric fibroblasts by the Rho-kinase inhibitors were identified by a DNA comet assay. This method is performed by detecting DNA fractions cleaved by ultraviolet (UV) irradiation. This method is based on gel electrophoresis. During gel electrophoresis, damaged DNA migrates farther than normal DNA forming a tail like a comet-tail. Then, a slide was stained with SYBR Green, and the length of a tail of a DNA fraction was measured using a fluorescence microscope to identify the degree of DNA damage.
FIG. 21 is a graph displaying degrees of DNA damage in progeric fibroblasts (cell passage 17) cultured in the presence of Rho-kinase inhibitors Y-27632 (5 μM), Fasudil (5 μM), and SR3677 (0.5 μM) measured by a DNA comet assay indicating the degree of DNA damage. In FIG. 21, senescent progeric cells (cell passage 17) were cultured in culture media supplemented with 5 μM of Y-27632, 5 μM of FASUDIL, and 0.5 μM of SR3677 for 4 weeks in a 5% CO2 incubator at 37° C. The culture media were changed at every 4 days with new culture media supplemented with 5 μM of Y-27632, 5 μM of FASUDIL, and 0.5 μM of SR3677. Cells having a cell doubling time of 6 to 7 days were used as young cells. A negative control group was prepared in the same manner, except that DMSO was used. […] Thus, it was confirmed that the degree of DNA damage increases in senescent cells. […] In FIG. 21, * indicates statistically significant (p<0.05).

The structures appear in SMILES notation.

`O=S(=O)(c1cccc2cnccc12)N1CCCNCC1` [FASUDIL, 5-(1,4-diazepane-1-sulfonyl)isoquinoline]: the “DNA damage (Tail Moment)” value in assay [1] (5 μM) is listed as “considerably restored”. Moreover, in assay [2] (5 μM), the cell shape result was “spindle shape generally found in young cells” and the numbers of cells entry is “greater than that of the control group”. Also, in assay [3] (5 μM), the ROS entry is listed as “significantly reduced”. Also, the “DNA damage (Tail Moment)” value in assay [4] (5 μM) is “considerably reduced”.

Take `C[C@@H](N)[C@H]1CC[C@H](C(=O)Nc2ccncc2)CC1` [Y-27632, (1R,4R)-4-((R)-1-aminoethyl)-N-(pyridin-4-yl)cyclohexanecarboxamide]: in assay [1] (5 μM), the “DNA damage (Tail Moment)” value is “considerably restored”. Besides, in assay [2] (5 μM), the cell shape entry was “spindle shape generally found in young cells” and the numbers of cells result was “greater than that of the control group”. Further, the ROS result in assay [3] (5 μM) was “significantly reduced”. Moreover, the “DNA damage (Tail Moment)” value in assay [4] (5 μM) is “considerably reduced”.

As for `CN(C)CCOc1cc(-c2cn[nH]c2)ccc1NC(=O)C1COc2ccccc2O1` (stereo not drawn) [SR3677], the “DNA damage (Tail Moment)” value in assay [1] (0.5 μM) is “considerably restored”. In addition, in assay [2] (0.5 μM), the cell shape result is listed as “spindle shape generally found in young cells” and the numbers of cells result is given as “greater than that of the control group”. For the same molecule, in assay [3] (0.5 μM), the ROS result is given as “significantly reduced”. In addition, the “DNA damage (Tail Moment)” value in assay [4] (0.5 μM) is given as “considerably reduced”.

Values taken from patent publication US9943525B2, “Composition for reducing cell senescence comprising Rho-kinase inhibitor and use thereof” (Samsung Electronics Co., Ltd., priority 2014, dated 2018).
